From patent publication US20230265151A1, “GIP/GLP1 CO-AGONIST COMPOUNDS” (priority 2020, published 2023) come the findings set out here.

Common to all, as to assay type: cell-based
Assay [1] addresses T1, hGIPR (Homo sapiens, UniProt P48546).
T1 construct: expressed in transfected cells
T1 sequence (P48546 22-466): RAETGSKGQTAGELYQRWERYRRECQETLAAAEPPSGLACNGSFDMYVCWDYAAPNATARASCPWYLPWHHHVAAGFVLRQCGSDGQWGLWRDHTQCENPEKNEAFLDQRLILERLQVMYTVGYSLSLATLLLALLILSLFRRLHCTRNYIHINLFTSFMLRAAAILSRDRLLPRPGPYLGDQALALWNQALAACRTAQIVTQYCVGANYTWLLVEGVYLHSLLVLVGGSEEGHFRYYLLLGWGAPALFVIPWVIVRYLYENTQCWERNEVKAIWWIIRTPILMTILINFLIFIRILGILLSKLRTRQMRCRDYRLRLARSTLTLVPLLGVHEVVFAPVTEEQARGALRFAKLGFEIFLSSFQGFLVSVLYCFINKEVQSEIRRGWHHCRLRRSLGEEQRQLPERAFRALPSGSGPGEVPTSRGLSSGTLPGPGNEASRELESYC
Nature of the assay: Functional cAMP formation (HTRF) in HEK-293 clonal cells expressing hGIPR, 0.1% bovine casein, without or with 1.0% human serum albumin. Conditions: 37° C.; for Emax: read-out: hGIPR Emax, % ± SEM; for EC50: cAMP, 0.1% bovine casein (no human serum albumin), geometric mean, read-out: hGIPR EC50, nM (SEM, n). In short, it runs like this:
(§1)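 Cells were stimulated with peptide for 30 min at 37° C, then intracellular cAMP was measured by competitive HTRF (665/620 nm ratio) and converted to nM using a cAMP standard curve. Relative EC50 and Emax came from four-parameter logistic fits of percent maximal response against peptide concentration.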
Background: Cyclic AMP is a second messenger, typically raised through Gs and lowered through Gi signalling.

Assay [2] concerns the target T2, hGCGR (Homo sapiens, UniProt P47871).
T2 construct: expressed in transfected cells
Nature of the assay: Functional cAMP formation (HTRF) in HEK-293 clonal cells expressing hGCGR, 0.1% bovine casein, without or with 1.0% human serum albumin. Conditions: read-out: hGCGR EC50, nM (SEM, n). In short, it runs like this:
as §1

For assay [3], the target named is hGLP-1R (Homo sapiens, UniProt P43220). Kind of assay: Functional cAMP formation (HTRF) in HEK-293 clonal cells expressing hGLP-1R, 0.1% bovine casein, without or with 1.0% human serum albumin. Also noted: expressed in transfected cells. Conditions: for Emax: read-out: hGLP-1R Emax, % ± SEM; for EC50: cAMP, read-out: hGLP-1R EC50, nM (SEM, n). The procedure, abridged:
as §1

The mark [4] stands for this setting: HEK293, 0.1% bovine casein and 1.0% human serum albumin, percent of maximal response to GIP(1-42)NH2.
[5] abbreviates: 0.1% bovine casein and 1.0% human serum albumin, 37° C., geometric mean.
The mark [6] stands for this setting: cAMP, incubated at 37° C., 0.1% bovine casein (no human serum albumin), geometric mean.
Where [7] appears, read: HEK293, cAMP, 0.1% bovine casein and 1.0% human serum albumin, percent of maximal response to GIP(1-42)NH2.
[8] abbreviates: cAMP, 37° C., 0.1% bovine casein (no human serum albumin), geometric mean.
Where [9] appears, read: cAMP, 37° C., 0.1% bovine casein and 1.0% human serum albumin, geometric mean (SEM, n).
[10] abbreviates: HEK293, cAMP, 37° C., 0.1% bovine casein, percent of maximal response to GLP-1(7-36)NH2, arithmetic mean.
Setting [11] is: 37° C., 0.1% bovine casein (no human serum albumin), geometric mean.

Structures are written as SMILES. Read-outs that look alike come from different tables or passages of the source.

T2 sequence (P47871 26-477): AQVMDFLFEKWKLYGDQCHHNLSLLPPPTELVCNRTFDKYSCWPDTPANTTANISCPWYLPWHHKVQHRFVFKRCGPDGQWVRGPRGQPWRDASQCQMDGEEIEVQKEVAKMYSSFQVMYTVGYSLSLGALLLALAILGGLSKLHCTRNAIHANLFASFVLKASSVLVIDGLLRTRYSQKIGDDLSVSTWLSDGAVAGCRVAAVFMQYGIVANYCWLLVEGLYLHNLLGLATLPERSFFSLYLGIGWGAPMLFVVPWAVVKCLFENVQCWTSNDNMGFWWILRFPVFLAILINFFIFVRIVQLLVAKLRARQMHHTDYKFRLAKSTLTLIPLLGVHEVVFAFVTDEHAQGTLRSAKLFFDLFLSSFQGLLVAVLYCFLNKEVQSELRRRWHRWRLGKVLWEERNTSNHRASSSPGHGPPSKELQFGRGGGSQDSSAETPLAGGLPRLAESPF
Sequence of hGLP-1R (P43220 24-463): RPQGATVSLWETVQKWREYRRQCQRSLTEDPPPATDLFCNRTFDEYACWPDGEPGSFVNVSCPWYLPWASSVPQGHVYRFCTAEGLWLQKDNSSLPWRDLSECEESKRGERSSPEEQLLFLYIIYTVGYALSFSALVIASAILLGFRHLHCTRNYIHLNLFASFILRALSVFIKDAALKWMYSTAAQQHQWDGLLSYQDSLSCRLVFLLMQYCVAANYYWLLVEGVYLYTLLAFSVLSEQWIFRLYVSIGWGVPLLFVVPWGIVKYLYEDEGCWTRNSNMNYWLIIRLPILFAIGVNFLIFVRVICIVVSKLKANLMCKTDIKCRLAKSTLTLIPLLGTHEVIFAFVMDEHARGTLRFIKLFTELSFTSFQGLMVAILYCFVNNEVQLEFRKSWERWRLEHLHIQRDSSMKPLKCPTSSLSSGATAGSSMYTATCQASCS

The Emax is the size of the effect at its maximum, as opposed to the concentration needed. Broadly, the EC50 is the midpoint of the concentration-response curve. As for `CC[C@H](C)[C@H](NC(=O)[C@H](CC(C)C)NC(=O)[C@](C)(Cc1ccc(O)cc1)NC(=O)[C@@H](CCC(=O)O)NC(=O)[C@@H](NC(=O)[C@H](Cc1ccccc1)NC(=O)[C@H](CCC(=O)O)NC(=O)C(C)(C)NC(=O)[C@H](CCC(N)=O)NC(=O)[C@H](C)NC(=O)[C@H](CCCCNC(=O)COCCOCCNC(=O)COCCOCCNC(=O)CC[C@H](NC(=O)CCCCCCCCCCCCC(=O)O)C(=O)O)NC(=O)[C@H](CCCN)NC(=O)[C@H](CC(=O)O)NC(=O)[C@H](CC(C)C)NC(=O)[C@](C)(CC(C)C)NC(=O)[C@@H](NC(=O)[C@@H](NC(=O)[C@H](Cc1ccncc1)NC(=O)[C@H](CC(=O)O)NC(=O)[C@H](CO)NC(=O)[C@@H](NC(=O)[C@](C)(Cc1ccccc1F)NC(=O)[C@@H](NC(=O)CNC(=O)[C@H](CCC(=O)O)NC(=O)C(C)(C)NC(=O)[C@@H](N)Cc1ccc(O)cc1)[C@@H](C)O)[C@@H](C)O)C(C)(C)C)[C@@H](C)CC)[C@@H](C)CC)C(=O)N[C@@H](CCC(=O)O)C(=O)NCC(=O)NCC(=O)N[C@@H](CCCCNC(=O)COCCOCCNC(=O)COCCOCCNC(=O)CC[C@H](NC(=O)CCCCCCCCCCCCC(=O)O)C(=O)O)C(=O)N[C@@H](CO)C(=O)N[C@@H](CO)C(=O)NCC(=O)N[C@@H](C)C(=O)N1CCC[C@H]1C(=O)N1CCC[C@H]1C(=O)N1CCC[C@H]1C(=O)N[C@@H](CO)C(N)=O` [Example 202], the Emax in assay [1] (setting [4]) came to 75.3%; in assay [1] (HEK293, percent of maximal response to GIP(1-42)NH2, 0.1% bovine casein, arithmetic mean), 86%; in assay [3] (HEK293, 0.1% bovine casein and 1.0% human serum albumin, 37° C., percent of maximal response to GLP-1(7-36)NH2), 109%; in assay [3] (HEK293, percent of maximal response to GLP-1(7-36)NH2, 37° C., 0.1% bovine casein, arithmetic mean), 92.2%. Moreover, the EC50 in assay [2] (setting [5]) and in assay [2] (setting [6]) was more than 9950 nM in each case.

`CCCCCCCCCCCC(=O)N[C@@H](CCC(=O)NCCOCCOCC(=O)NCCOCCOCC(=O)NCCCC[C@H](NC(=O)[C@H](CCCN)NC(=O)[C@H](CC(=O)O)NC(=O)[C@H](CC(C)C)NC(=O)[C@](C)(CC(C)C)NC(=O)[C@@H](NC(=O)C(C)(C)NC(=O)[C@H](CCCCNC(=O)COCCOCCNC(=O)COCCOCCNC(=O)CC[C@H](NC(=O)CCCCCCCCCCC)C(=O)O)NC(=O)[C@H](CC(=O)O)NC(=O)[C@H](CO)NC(=O)[C@@H](NC(=O)[C@](C)(Cc1ccccc1F)NC(=O)[C@@H](NC(=O)CNC(=O)[C@H](CCC(=O)O)NC(=O)C(C)(C)NC(=O)[C@@H](N)Cc1ccc(O)cc1)[C@@H](C)O)[C@@H](C)O)[C@@H](C)CC)C(=O)N[C@@H](C)C(=O)N[C@@H](CCC(N)=O)C(=O)NC(C)(C)C(=O)N[C@@H](CCC(=O)O)C(=O)N[C@@](C)(Cc1ccccc1)C(=O)N[C@H](C(=O)N[C@H](CCC(=O)O)C(=O)N[C@@](C)(Cc1ccc(O)cc1)C(=O)N[C@@H](CC(C)C)C(=O)N[C@H](C(=O)N[C@@H](CCC(=O)O)C(=O)NCC(=O)NCC(=O)N1CCC[C@H]1C(=O)N[C@@H](CO)C(=O)N[C@@H](CO)C(=O)NCC(=O)N[C@@H](C)C(=O)N1CCC[C@H]1C(=O)N1CCC[C@H]1C(=O)N1CCC[C@H]1C(=O)N[C@@H](CO)C(N)=O)[C@@H](C)CC)[C@@H](C)CC)C(=O)O` [Example 429]: the figures for the Emax in assay [1] (setting [7]) and in assay [3] (setting [10]) were 93.3% and 116%, respectively. The EC50 in assay [1] was 0.00799 nM; in assay [2] (setting [8]), more than 9950 nM; in assay [2] (setting [9]), more than 9950 nM; in assay [3] (setting [11]) it was 0.116 nM; in assay [3] (37° C., 0.1% bovine casein and 1.0% human serum albumin, geometric mean (SEM, n)), 17.3 nM.

For `CC[C@H](C)[C@H](NC(=O)[C@H](CC(C)C)NC(=O)[C@](C)(Cc1ccc(O)cc1)NC(=O)[C@H](CCCCNC(=O)COCCOCCNC(=O)COCCOCCNC(=O)CC[C@H](NC(=O)CCCCCCCCCCCCCCC(=O)O)C(=O)O)NC(=O)[C@@H](NC(=O)[C@H](Cc1ccccc1)NC(=O)[C@H](CCCN)NC(=O)C(C)(C)NC(=O)[C@H](CCC(N)=O)NC(=O)[C@H](C)NC(=O)[C@H](CCC(N)=O)NC(=O)[C@H](CCCN)NC(=O)[C@H](CC(=O)O)NC(=O)[C@H](CC(C)C)NC(=O)[C@](C)(CC(C)C)NC(=O)[C@@H](NC(=O)C(C)(C)NC(=O)[C@H](Cc1ccncc1)NC(=O)[C@H](CC(=O)O)NC(=O)[C@H](CO)NC(=O)[C@@H](NC(=O)[C@](C)(Cc1ccccc1F)NC(=O)[C@@H](NC(=O)CNC(=O)[C@H](CCC(=O)O)NC(=O)C(C)(C)NC(=O)[C@@H](N)Cc1ccc(O)cc1)[C@@H](C)O)[C@@H](C)O)[C@@H](C)CC)[C@@H](C)CC)C(=O)N[C@@H](CCCCNC(=O)COCCOCCNC(=O)COCCOCCNC(=O)CC[C@H](NC(=O)CCCCCCCCCCCCCCC(=O)O)C(=O)O)C(=O)NCC(=O)NCC(=O)N1CCC[C@H]1C(=O)N[C@@H](CO)C(=O)N[C@@H](CO)C(=O)NCC(=O)N[C@@H](C)C(=O)N1CCC[C@H]1C(=O)N1CCC[C@H]1C(=O)N1CCC[C@H]1C(=O)N[C@@H](CO)C(N)=O` [Example 443], the Emax in assay [1] (setting [7]) amounted to 91.1%; in assay [3] (setting [10]), 114%. The concentration for a half-maximal effect (EC50) was 0.0178 nM in assay [1], more than 9950 nM in assay [2] (setting [8]), more than 9950 nM in assay [2] (setting [9]) and 0.294 nM in assay [3] (setting [11]).

As to `CC[C@H](C)[C@H](NC(=O)[C@H](CC(C)C)NC(=O)[C@](C)(Cc1ccc(O)cc1)NC(=O)[C@@H](CCC(=O)O)NC(=O)[C@@H](NC(=O)[C@H](Cc1ccccc1)NC(=O)[C@H](CCC(=O)O)NC(=O)C(C)(C)NC(=O)[C@H](CCC(N)=O)NC(=O)CNC(=O)[C@H](CCCCNC(=O)COCCOCCNC(=O)COCCOCCNC(=O)CC[C@H](NC(=O)CCCCCCCCCCCCC(=O)O)C(=O)O)NC(=O)[C@H](CCCN)NC(=O)[C@H](CC(=O)O)NC(=O)[C@H](CC(C)C)NC(=O)[C@](C)(CC(C)C)NC(=O)[C@@H](NC(=O)[C@H](CO)NC(=O)[C@H](Cc1ccncc1)NC(=O)[C@H](CC(=O)O)NC(=O)[C@H](CO)NC(=O)[C@@H](NC(=O)[C@](C)(Cc1ccccc1F)NC(=O)[C@@H](NC(=O)CNC(=O)[C@H](CCC(=O)O)NC(=O)C(C)(C)NC(=O)[C@@H](N)Cc1ccc(O)cc1)[C@@H](C)O)[C@@H](C)O)[C@@H](C)CC)[C@@H](C)CC)C(=O)N[C@@H](CCC(=O)O)C(=O)NCC(=O)NCC(=O)N[C@@H](CCCCNC(=O)COCCOCCNC(=O)COCCOCCNC(=O)CC[C@H](NC(=O)CCCCCCCCCCCCC(=O)O)C(=O)O)C(=O)N[C@@H](CO)C(=O)N[C@@H](CO)C(=O)NCC(=O)N[C@@H](C)C(=O)N1CCC[C@H]1C(=O)N1CCC[C@H]1C(=O)N1CCC[C@H]1C(=O)N[C@@H](CO)C(N)=O` [Example 102], the Emax in assay [1] (setting [4]) was 96.9%. Further, the EC50 in assay [2] (setting [5]) is more than 9950 nM; in assay [2] (setting [6]), more than 9950 nM; in assay [3] (incubated at 37° C., 0.1% bovine casein (no human serum albumin), geometric mean) it was 19.1 nM.
